Structures are written as SMILES.

What all share (assay): spectrophotometric NADH formation at […] nm, cell extract
What all share (type): biochemical
What all share (details): 0.4 mM NAD+, 5 mM 6-phosphogluconate, 5 mM MgCl2, 50 mM Tris-HCl pH 8.0, 30 C

In test [1] the target is T1, G. oxydans gox1705 (NAD+-preferring 6-phosphogluconate dehydrogenase) (Gluconobacter oxydans, UniProt G5EBD7).
T1 construct: codon-optimized gene, TPI1 promoter, integrated at GND1 locus of S. cerevisiae gnd1 gnd2 deletion strain IMX707; cell extract

Test [2] deals with T2, GndA (M. flagellatus NAD+-dependent 6-phosphogluconate dehydrogenase, gndA) (Methylobacillus flagellatus, UniProt Q9L9P8).
T2 construct: codon-optimized gene, TPI1 promoter, integrated at GND1 locus of S. cerevisiae gnd1 gnd2 deletion strain IMX705; cell extract

The target in test [3] is T3, B. japonicum 6pgdh (NAD+-dependent 6-phosphogluconate dehydrogenase) (Bradyrhizobium diazoefficiens, UniProt Q89FE2).
T3 construct: gene blr6759; codon-optimized gene, TPI1 promoter, integrated at GND1 locus of S. cerevisiae gnd1 gnd2 deletion strain IMX706; cell extract
T3 sequence (Q89FE2 entry or part of it): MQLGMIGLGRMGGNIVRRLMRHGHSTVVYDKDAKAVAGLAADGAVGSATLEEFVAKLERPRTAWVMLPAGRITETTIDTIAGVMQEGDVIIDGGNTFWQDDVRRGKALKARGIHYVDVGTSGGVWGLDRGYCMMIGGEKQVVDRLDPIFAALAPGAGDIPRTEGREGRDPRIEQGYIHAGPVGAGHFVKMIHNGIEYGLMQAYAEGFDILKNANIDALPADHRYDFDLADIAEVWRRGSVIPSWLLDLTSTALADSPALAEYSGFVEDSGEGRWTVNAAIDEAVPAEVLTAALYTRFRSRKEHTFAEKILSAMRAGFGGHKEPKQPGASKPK

T1 sequence (G5EBD7 whole entry): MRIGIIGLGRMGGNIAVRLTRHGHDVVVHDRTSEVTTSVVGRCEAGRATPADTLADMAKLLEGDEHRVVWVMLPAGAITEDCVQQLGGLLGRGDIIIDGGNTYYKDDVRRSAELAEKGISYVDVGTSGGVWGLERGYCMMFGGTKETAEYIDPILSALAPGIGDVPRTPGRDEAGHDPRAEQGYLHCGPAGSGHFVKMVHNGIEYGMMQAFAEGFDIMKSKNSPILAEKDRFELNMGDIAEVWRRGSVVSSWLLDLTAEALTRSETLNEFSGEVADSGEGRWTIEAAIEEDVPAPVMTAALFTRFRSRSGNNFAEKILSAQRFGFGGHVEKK
T2 sequence (Q9L9P8 entry or part of it): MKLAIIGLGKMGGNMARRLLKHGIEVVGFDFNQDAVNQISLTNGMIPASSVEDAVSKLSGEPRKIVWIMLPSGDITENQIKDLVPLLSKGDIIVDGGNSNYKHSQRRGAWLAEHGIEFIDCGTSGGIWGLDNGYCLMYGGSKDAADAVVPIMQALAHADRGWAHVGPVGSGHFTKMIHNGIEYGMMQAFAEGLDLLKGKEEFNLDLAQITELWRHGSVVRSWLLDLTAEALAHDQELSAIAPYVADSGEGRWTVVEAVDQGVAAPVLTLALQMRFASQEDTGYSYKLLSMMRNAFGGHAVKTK

As for `NC(=O)c1ccc[n+]([C@@H]2O[C@H](COP(=O)(O)OP(=O)(O)OC[C@H]3O[C@@H](n4cnc5c(N)ncnc54)[C@H](O)[C@@H]3O)[C@@H](O)[C@H]2O)c1` [NAD^+], the “spectrophotometric NADH formation at 340 nm, cell extract” value in test [1] is given as “expressing bacterial 6-PGDH genes showed high specific activities with NAD^+ as the electron acceptor”; in test [2] it was “expressing gndA from M. flagellatus, showed the highest in vitro NAD^+-dependent 6-PGDH activity”; in test [3], “expressing bacterial 6-PGDH genes showed high specific activities with NAD^+ as the electron acceptor”.

For the origin of these results see publication PMC5574463, “Improving ethanol yield in acetate-reducing Saccharomyces cerevisiae by cofactor engineering of 6-phosphogluconate dehydrogenase and deletion of ALD6” (Microbial Cell Factories, 2016).
